Experimental data: PubChem BioAssay (NCI)
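Each compound was tested at five concentrations against cells in 96-well plates for 48 hours. TGI: concentration producing complete growth inhibition.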

Legend:
Assay in all cases: inhibition of tumour cell growth, NCI panel, 48 h
786-0 renal = tested on: 786-0 renal
A498 renal = tested on: A498 renal
A549 NSCLC = tested on: A549 NSCLC
ACHN renal = tested on: ACHN renal
BT-549 breast = tested on: BT-549 breast
CAKI-1 renal = tested on: CAKI-1 renal
CCRF-CEM leukemia = tested on: CCRF-CEM leukemia
COLO 205 colon = tested on: COLO 205 colon
DU-145 prostate = tested on: DU-145 prostate
EKVX NSCLC = tested on: EKVX NSCLC
HCC-2998 colon = tested on: HCC-2998 colon
HCT-116 colon = tested on: HCT-116 colon
HCT-15 colon = tested on: HCT-15 colon
HL-60(TB) leukemia = tested on: HL-60(TB) leukemia
HOP-62 NSCLC = tested on: HOP-62 NSCLC
HOP-92 NSCLC = tested on: HOP-92 NSCLC
HS 578T breast = tested on: HS 578T breast
HT29 colon = tested on: HT29 colon
IGROV1 ovarian = tested on: IGROV1 ovarian
K-562 leukemia = tested on: K-562 leukemia
KM12 colon = tested on: KM12 colon
LOX IMVI melanoma = tested on: LOX IMVI melanoma
M14 melanoma = tested on: M14 melanoma
MCF7 breast = tested on: MCF7 breast
MDA-MB-231 breast = tested on: MDA-MB-231 breast
MDA-MB-435 = tested on: MDA-MB-435
MDA-N = tested on: MDA-N
MOLT-4 leukemia = tested on: MOLT-4 leukemia
NCI-H226 lung = tested on: NCI-H226 lung
NCI-H23 lung = tested on: NCI-H23 lung
NCI-H460 lung = tested on: NCI-H460 lung
NCI/ADR-RES ovarian = tested on: NCI/ADR-RES ovarian
OVCAR-3 ovarian = tested on: OVCAR-3 ovarian
OVCAR-4 ovarian = tested on: OVCAR-4 ovarian
OVCAR-5 ovarian = tested on: OVCAR-5 ovarian
OVCAR-8 ovarian = tested on: OVCAR-8 ovarian
PC-3 prostate = tested on: PC-3 prostate
RPMI-8226 leukemia = tested on: RPMI-8226 leukemia
RXF 393 renal = tested on: RXF 393 renal
SF-268 CNS = tested on: SF-268 CNS
SF-295 CNS = tested on: SF-295 CNS
SF-539 CNS = tested on: SF-539 CNS
SK-MEL-2 melanoma = tested on: SK-MEL-2 melanoma
SK-MEL-28 melanoma = tested on: SK-MEL-28 melanoma
SK-OV-3 ovarian = tested on: SK-OV-3 ovarian
SN12C renal = tested on: SN12C renal
SNB-19 CNS = tested on: SNB-19 CNS
SNB-75 CNS = tested on: SNB-75 CNS
SR leukemia = tested on: SR leukemia
SW-620 colon = tested on: SW-620 colon
T-47D breast = tested on: T-47D breast
TK-10 renal = tested on: TK-10 renal
U251 CNS = tested on: U251 CNS
UACC-257 melanoma = tested on: UACC-257 melanoma
UACC-62 melanoma = tested on: UACC-62 melanoma
UO-31 renal = tested on: UO-31 renal
NCI-H522 lung = tested on: NCI-H522 lung
SK-MEL-5 melanoma = tested on: SK-MEL-5 melanoma

SMILES: N#Cc1c(NCCc2ccc(F)cc2)c2ccccc2n2c1nc1ccccc12
- TGI (786-0 renal): 17.6 µM
- TGI (A498 renal): 53.1 µM
- TGI (A549 NSCLC): > 100 µM
- TGI (ACHN renal): 35.2 µM
- TGI (BT-549 breast): 72.6 µM
- TGI (CAKI-1 renal): 29.1 µM
- TGI (CCRF-CEM leukemia): > 100 µM
- TGI (COLO 205 colon): > 100 µM
- TGI (DU-145 prostate): 98.1 µM
- TGI (EKVX NSCLC): 29.3 µM
- TGI (HCC-2998 colon): > 100 µM
- TGI (HCT-116 colon): > 100 µM
- TGI (HCT-15 colon): > 100 µM
- TGI (HL-60(TB) leukemia): > 100 µM
- TGI (HOP-62 NSCLC): > 100 µM
- TGI (HOP-92 NSCLC): 19.8 µM
- TGI (HS 578T breast): 32 µM
- TGI (HT29 colon): 91.5 µM
- TGI (IGROV1 ovarian): 39.9 µM
- TGI (K-562 leukemia): > 100 µM
- TGI (KM12 colon): > 100 µM
- TGI (LOX IMVI melanoma): > 100 µM
- TGI (M14 melanoma): > 100 µM
- TGI (MCF7 breast): > 100 µM
- TGI (MDA-MB-231 breast): 36.3 µM
- TGI (MDA-MB-435): > 100 µM
- TGI (MDA-N): > 100 µM
- TGI (MOLT-4 leukemia): > 100 µM
- TGI (NCI-H226 lung): 55.4 µM
- TGI (NCI-H23 lung): 39.1 µM
- TGI (NCI-H460 lung): > 100 µM
- TGI (NCI/ADR-RES ovarian): 59.2 µM
- TGI (OVCAR-3 ovarian): 66.4 µM
- TGI (OVCAR-4 ovarian): 9.16 µM
- TGI (OVCAR-5 ovarian): > 100 µM
- TGI (OVCAR-8 ovarian): 25.4 µM
- TGI (PC-3 prostate): 82.7 µM
- TGI (RPMI-8226 leukemia): > 100 µM
- TGI (RXF 393 renal): 65.7 µM
- TGI (SF-268 CNS): 96.5 µM
- TGI (SF-295 CNS): 65.4 µM
- TGI (SF-539 CNS): > 100 µM
- TGI (SK-MEL-2 melanoma): > 100 µM
- TGI (SK-MEL-28 melanoma): > 100 µM
- TGI (SK-OV-3 ovarian): > 100 µM
- TGI (SN12C renal): > 100 µM
- TGI (SNB-19 CNS): 51 µM
- TGI (SNB-75 CNS): 30.8 µM
- TGI (SR leukemia): > 100 µM
- TGI (SW-620 colon): > 100 µM
- TGI (T-47D breast): 95.6 µM
- TGI (TK-10 renal): 60.8 µM
- TGI (U251 CNS): 61 µM
- TGI (UACC-257 melanoma): > 100 µM
- TGI (UACC-62 melanoma): 32.8 µM
- TGI (UO-31 renal): 39.5 µM

SMILES: COC1CCC(O)C(/C=C/[N+](=O)[O-])C1 (stereo not drawn)
- TGI (786-0 renal): 3.67 µM
- TGI (A498 renal): 14.2 µM
- TGI (A549 NSCLC): 42.9 µM
- TGI (ACHN renal): 29.9 µM
- TGI (BT-549 breast): 8.49 µM
- TGI (CAKI-1 renal): 38.4 µM
- TGI (CCRF-CEM leukemia): > 100 µM
- TGI (COLO 205 colon): 5.7 µM
- TGI (DU-145 prostate): 15.2 µM
- TGI (EKVX NSCLC): 15.1 µM
- TGI (HCC-2998 colon): 3.14 µM
- TGI (HCT-116 colon): 4.58 µM
- TGI (HCT-15 colon): 4.69 µM
- TGI (HL-60(TB) leukemia): 5.29 µM
- TGI (HOP-62 NSCLC): 19.1 µM
- TGI (HOP-92 NSCLC): 26.6 µM
- TGI (HS 578T breast): 17.2 µM
- TGI (HT29 colon): 11.2 µM
- TGI (IGROV1 ovarian): 3.55 µM
- TGI (K-562 leukemia): 22 µM
- TGI (KM12 colon): 16.9 µM
- TGI (LOX IMVI melanoma): 3.05 µM
- TGI (M14 melanoma): 10.7 µM
- TGI (MCF7 breast): 12.9 µM
- TGI (MDA-MB-231 breast): 18.1 µM
- TGI (MDA-MB-435): 3.67 µM
- TGI (MDA-N): 5.56 µM
- TGI (MOLT-4 leukemia): 6.55 µM
- TGI (NCI-H226 lung): 5.96 µM
- TGI (NCI-H23 lung): 16.6 µM
- TGI (NCI-H460 lung): 7.73 µM
- TGI (NCI-H522 lung): 23.2 µM
- TGI (NCI/ADR-RES ovarian): 75.1 µM
- TGI (OVCAR-3 ovarian): 22.3 µM
- TGI (OVCAR-4 ovarian): 28.4 µM
- TGI (OVCAR-5 ovarian): 21.5 µM
- TGI (OVCAR-8 ovarian): 4.69 µM
- TGI (PC-3 prostate): 6.01 µM
- TGI (RPMI-8226 leukemia): 4.2 µM
- TGI (RXF 393 renal): 2.91 µM
- TGI (SF-268 CNS): 15 µM
- TGI (SF-295 CNS): 23.9 µM
- TGI (SF-539 CNS): 16.6 µM
- TGI (SK-MEL-2 melanoma): 23.1 µM
- TGI (SK-MEL-28 melanoma): 54.9 µM
- TGI (SK-MEL-5 melanoma): 14.9 µM
- TGI (SK-OV-3 ovarian): 22.6 µM
- TGI (SN12C renal): 9.05 µM
- TGI (SNB-19 CNS): 23.6 µM
- TGI (SNB-75 CNS): 21.5 µM
- TGI (SR leukemia): 5.43 µM
- TGI (SW-620 colon): > 100 µM
- TGI (T-47D breast): 44.8 µM
- TGI (TK-10 renal): 16.1 µM
- TGI (U251 CNS): 8.04 µM
- TGI (UACC-257 melanoma): 5.48 µM
- TGI (UACC-62 melanoma): 19.3 µM
